Assay results as given in ChEMBL document CHEMBL1201862, “PubChem BioAssay data set” (2004).
Activity calls are given as the source filed them.

Experiments:
[1] = Luminescence-based counterscreen assay for KLF5 inhibitors: dose response cell-based high throughput screening assay to identify cytotoxic compounds using the IEC-6 intestinal epithelial cell line. [Related pubchem assays: 1700 (Primary screen.), 1834 (Confirmation screen.), 1858 (Summary AID.), 1905 (Counterscreen.)]; format: functional
DLD-1 [2] = assay: reduction of KLF5 protein levels, late-stage follow-up, orthogonal assay for KLF5 inhibitor project, western blot, chemiluminescence, DLD-1 cells, titration (AID 485336); format: functional, cell-based; conditions: Homo sapiens
[3] = HEp-2 cell cytotoxicity, dose response, cytotoxicity control for RSV inhibitor project, HTS (AID 2410); format: functional; conditions: human respiratory syncytial virus
[4] = Luminescence Cell-Based Dose Retest to Confirm Inhibitors of Cancer Stem Cells. [Related pubchem assays (depositor defined):AID2717, AID2721]; format: functional; conditions: Homo sapiens
DLD-1 [5] = assay: cytotoxicity in DLD-1 colorectal cells, late-stage follow-up, cytotoxicity control for KLF5 inhibitor project, cell-based, luminescence, round 1 (AID 485338); format: functional; conditions: Homo sapiens
[6] = target: Sphingosine 1-phosphate receptor 5 (Homo sapiens, UniProt Q9H228); assay: (§1) Late-stage fluorescence-based dose-response cell-based assay to identify agonists of the Sphingosine 1-Phosphate Receptor 4 (S1P4): Sphingosine 1-Phosphate Receptor 5 (S1P5) counterscreen assay. [Related pubchem assays (depositor defined):AID1509, AID1523, AID1563, AID1686, AID1701, AID1801, AID463107, AID463225, AID504400]; format: functional
Sequence of Sphingosine 1-phosphate receptor 5 (Q9H228 whole entry): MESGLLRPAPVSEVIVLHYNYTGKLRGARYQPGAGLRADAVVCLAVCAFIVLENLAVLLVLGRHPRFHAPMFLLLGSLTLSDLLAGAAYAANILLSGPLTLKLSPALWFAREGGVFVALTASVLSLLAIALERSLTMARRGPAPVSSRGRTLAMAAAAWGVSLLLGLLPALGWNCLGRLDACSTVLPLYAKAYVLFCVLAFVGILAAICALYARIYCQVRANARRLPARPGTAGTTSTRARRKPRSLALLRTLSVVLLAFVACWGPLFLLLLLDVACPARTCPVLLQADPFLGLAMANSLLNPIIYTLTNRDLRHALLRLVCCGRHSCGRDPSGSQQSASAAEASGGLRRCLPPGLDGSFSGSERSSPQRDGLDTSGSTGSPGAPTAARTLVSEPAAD

[7] = target: Sphingosine 1-phosphate receptor 4 (Homo sapiens, UniProt O95977); assay: Fluorescence dose response cell-based high throughput screening assay for agonists of the Sphingosine 1-Phosphate Receptor 4 (S1P4). [Related pubchem assays: 1509 (Primary screen.), 1523 (Confirmation screen in triplicates.)]; format: functional
Sequence of Sphingosine 1-phosphate receptor 4 (O95977 whole entry): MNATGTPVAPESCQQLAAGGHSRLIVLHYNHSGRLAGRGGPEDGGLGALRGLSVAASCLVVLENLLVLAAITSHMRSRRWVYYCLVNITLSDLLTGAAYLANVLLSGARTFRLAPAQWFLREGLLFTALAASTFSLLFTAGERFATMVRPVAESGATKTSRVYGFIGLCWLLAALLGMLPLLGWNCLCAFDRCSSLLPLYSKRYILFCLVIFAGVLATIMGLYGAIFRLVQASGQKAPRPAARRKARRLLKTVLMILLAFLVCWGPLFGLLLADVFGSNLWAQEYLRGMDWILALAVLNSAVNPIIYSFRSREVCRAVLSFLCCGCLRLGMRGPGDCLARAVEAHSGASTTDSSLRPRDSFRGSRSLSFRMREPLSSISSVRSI

[8] = target: T1, Sphingosine 1-phosphate receptor 1 (Homo sapiens, UniProt P21453); assay: Fluorescence-based counterscreen assay for S1P4 agonists: Cell-based dose response high throughput screening assay to identify agonists of the Sphingosine 1-Phosphate Receptor 1 (S1P1). [Related pubchem assays (depositor defined):AID1509, AID1523, AID1801, AID463107, AID463118, AID463119, AID463122, AID463123, AID463129, AID463225, AID504400, AID504460]; format: functional
T1 sequence (P21453 whole entry): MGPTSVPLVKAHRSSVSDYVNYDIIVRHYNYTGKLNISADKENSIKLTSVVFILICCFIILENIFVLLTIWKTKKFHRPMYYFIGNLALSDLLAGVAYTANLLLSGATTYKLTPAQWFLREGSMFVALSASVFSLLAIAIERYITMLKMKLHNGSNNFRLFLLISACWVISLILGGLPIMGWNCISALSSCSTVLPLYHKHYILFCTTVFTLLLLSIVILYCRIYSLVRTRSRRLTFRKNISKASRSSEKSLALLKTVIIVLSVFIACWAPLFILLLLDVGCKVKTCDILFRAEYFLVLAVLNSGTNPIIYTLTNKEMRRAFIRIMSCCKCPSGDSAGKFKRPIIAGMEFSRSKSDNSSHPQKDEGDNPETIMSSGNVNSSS

[9] = target: Sphingosine 1-phosphate receptor 3 (Homo sapiens, UniProt Q99500); assay: as §1, with “3 (S1P3)” for “5 (S1P5)”; format: functional
Sequence of Sphingosine 1-phosphate receptor 3 (Q99500 whole entry): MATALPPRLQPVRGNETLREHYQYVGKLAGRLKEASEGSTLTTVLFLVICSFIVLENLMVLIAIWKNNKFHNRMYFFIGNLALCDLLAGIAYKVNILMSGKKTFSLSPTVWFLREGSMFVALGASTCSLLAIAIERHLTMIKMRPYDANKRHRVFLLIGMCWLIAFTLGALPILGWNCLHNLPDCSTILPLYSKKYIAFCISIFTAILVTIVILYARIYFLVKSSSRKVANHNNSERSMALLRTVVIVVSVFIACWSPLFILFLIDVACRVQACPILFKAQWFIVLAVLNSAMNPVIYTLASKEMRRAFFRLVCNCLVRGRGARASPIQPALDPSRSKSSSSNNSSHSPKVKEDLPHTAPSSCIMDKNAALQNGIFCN

[10] = target: T1, Sphingosine 1-phosphate receptor 1; assay: as §1, with “1 (S1P1)” for “5 (S1P5)”; format: functional
[11] = target: Sphingosine 1-phosphate receptor 2 (Homo sapiens, UniProt O95136); assay: as §1, with “2 (S1P2)” for “5 (S1P5)”; format: functional
Sequence of Sphingosine 1-phosphate receptor 2 (O95136 whole entry): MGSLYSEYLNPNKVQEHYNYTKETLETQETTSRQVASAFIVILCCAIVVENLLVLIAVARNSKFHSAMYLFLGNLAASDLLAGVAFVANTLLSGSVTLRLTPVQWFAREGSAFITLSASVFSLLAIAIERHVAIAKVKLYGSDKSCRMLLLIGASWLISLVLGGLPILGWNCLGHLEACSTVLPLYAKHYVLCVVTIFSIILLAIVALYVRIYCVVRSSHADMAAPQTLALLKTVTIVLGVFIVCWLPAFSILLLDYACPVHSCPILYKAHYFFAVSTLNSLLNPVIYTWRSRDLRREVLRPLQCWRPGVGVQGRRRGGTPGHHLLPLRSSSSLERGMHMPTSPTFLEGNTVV

Streptococcus = assay: Group A Streptococcus viability loss, dose response, counter-screen for streptokinase expression inhibitor project, luminescence, BacTiterGlo (AID 1915); format: functional, organism-based;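 further: potency for reduction of bacterial viability or growth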
[12] = tested on: Streptococcus sp. 'group A'; assay: growth inhibition of control SK(-) GAS strain, dose response, counter-screen for streptokinase expression inhibitor project, luminescence, kanamycin, BacTiterGlo, confirmation (AID 1900); format: functional, organism-based
[13] = target: T2, Carboxy-terminal domain RNA polymerase II polypeptide A small phosphatase 1 (Homo sapiens, UniProt Q9GZU7); assay: inhibitors of CTDSP1, concentration-response testing, biochemical assay, absorbance-based, actives from ultra-high-throughput screening (AID 540297); format: functional
T2 sequence (Q9GZU7 whole entry): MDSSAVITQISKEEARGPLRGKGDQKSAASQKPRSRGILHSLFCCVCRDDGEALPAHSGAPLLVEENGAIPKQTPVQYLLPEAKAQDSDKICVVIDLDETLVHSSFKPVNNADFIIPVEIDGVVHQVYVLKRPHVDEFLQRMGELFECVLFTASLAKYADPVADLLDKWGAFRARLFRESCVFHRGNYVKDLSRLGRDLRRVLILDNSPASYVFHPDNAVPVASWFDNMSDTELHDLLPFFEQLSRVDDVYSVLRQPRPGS

Streptokinase A = target: T3, Streptokinase A (Streptococcus pyogenes serotype M1, UniProt P10520); assay: S. pyogenes streptokinase expression inhibitors, potency, dose response, plasminogen activation absorbance, OD405 (AID 1914); format: functional, Streptococcus pyogenes M1 GAS;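 further: secreted streptokinase activity via plasminogen activation per viability signal from cell pellet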
T3 sequence (P10520 whole entry): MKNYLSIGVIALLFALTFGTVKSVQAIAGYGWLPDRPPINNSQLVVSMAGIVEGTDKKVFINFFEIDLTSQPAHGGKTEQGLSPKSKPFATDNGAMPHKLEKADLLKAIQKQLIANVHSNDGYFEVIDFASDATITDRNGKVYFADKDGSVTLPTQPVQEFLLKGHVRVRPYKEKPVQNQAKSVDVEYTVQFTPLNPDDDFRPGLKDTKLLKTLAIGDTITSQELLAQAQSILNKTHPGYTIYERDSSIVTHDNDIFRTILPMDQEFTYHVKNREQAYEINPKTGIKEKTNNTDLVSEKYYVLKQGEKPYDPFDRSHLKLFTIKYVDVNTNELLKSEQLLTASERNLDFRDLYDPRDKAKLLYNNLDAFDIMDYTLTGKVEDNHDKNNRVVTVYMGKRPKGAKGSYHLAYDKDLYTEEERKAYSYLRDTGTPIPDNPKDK

[14] = growth suppression of beta-catenin-knockout colon cells, dose response, cell-based, HCT116, human colon tumor (AID 1045); format: functional;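 further: HCT116 colon tumor cells with beta catenin knocked out; cells exposed to compound for 60 hours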
SUMO-activating enzyme [15] = target: T4, SUMO-activating enzyme (Homo sapiens, UniProt Q9UBT2); assay: SUMOylation inhibitor hit validation, confirmation, SUMOylation inhibitor project, biochemical, AlphaScreen (AID 2018); format: functional
T4 sequence (Q9UBE0 whole entry): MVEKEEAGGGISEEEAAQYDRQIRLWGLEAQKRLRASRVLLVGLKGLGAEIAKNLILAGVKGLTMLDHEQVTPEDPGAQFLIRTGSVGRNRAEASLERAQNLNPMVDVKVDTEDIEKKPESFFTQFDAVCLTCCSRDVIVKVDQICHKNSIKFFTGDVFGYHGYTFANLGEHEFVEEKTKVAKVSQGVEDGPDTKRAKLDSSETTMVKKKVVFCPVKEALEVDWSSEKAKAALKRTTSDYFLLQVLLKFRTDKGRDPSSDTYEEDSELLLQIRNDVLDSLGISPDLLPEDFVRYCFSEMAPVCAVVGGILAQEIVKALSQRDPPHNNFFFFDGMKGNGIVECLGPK
T4 sequence (Q9UBT2 whole entry): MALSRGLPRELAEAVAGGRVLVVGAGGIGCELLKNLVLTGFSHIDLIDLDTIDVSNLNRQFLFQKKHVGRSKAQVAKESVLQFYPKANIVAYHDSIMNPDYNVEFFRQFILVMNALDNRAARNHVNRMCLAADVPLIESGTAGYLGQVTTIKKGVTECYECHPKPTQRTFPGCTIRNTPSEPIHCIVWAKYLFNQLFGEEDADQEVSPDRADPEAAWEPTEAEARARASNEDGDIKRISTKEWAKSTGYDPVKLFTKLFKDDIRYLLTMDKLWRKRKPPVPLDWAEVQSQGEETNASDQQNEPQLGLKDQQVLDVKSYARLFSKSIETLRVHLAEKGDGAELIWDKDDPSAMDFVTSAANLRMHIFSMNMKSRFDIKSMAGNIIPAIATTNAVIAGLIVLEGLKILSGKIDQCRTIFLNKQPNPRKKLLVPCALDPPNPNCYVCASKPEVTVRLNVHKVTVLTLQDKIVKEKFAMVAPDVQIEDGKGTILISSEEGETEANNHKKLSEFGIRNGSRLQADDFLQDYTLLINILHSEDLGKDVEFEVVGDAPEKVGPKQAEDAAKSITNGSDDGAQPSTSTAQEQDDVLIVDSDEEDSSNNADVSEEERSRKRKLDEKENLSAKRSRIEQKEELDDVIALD

SUMO-activating enzyme [16] = target: T4, SUMO-activating enzyme; assay: inhibitors of in vitro SUMOylation cascade, primary screen, biochemical, HTRF, uHTS (AID 2006); format: protein-complex assay
[17] = growth suppression of PTEN-null colon cells, dose response, cell-based, HCT116 PTEN knockout (AID 1047); format: functional;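 further: HCT116 colon tumor cells with PTEN knocked out; cells exposed to compound for 60 hours before readout; potency for loss of cell viability measured by luminescence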
Cannabinoid receptor 2 [18] = target: T5, Cannabinoid receptor 2 (Homo sapiens, UniProt P34972); assay: SAR analysis of agonists of the Cannabinoid Receptor 2 using an Image-Based Assay. [Related pubchem assays (depositor defined):AID2013, AID2026]; format: functional
T5 sequence (P34972 whole entry): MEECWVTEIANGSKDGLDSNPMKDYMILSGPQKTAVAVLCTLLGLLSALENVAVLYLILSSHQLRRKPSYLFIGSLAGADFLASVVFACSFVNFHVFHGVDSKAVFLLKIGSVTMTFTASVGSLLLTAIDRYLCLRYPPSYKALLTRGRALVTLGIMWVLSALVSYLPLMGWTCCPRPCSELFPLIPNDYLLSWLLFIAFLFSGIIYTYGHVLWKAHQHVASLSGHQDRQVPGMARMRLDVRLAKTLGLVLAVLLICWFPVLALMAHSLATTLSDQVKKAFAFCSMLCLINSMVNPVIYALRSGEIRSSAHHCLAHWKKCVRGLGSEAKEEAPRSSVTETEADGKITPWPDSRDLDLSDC

[19] = target: T6, G-protein coupled receptor 55 (Homo sapiens, UniProt Q9Y2T6); assay: GPR55 antagonist potency of analogs, SAR follow-up, imaging, U2OS, beta-arrestin-GFP, LPI agonist, set 2 (AID 2820); format: functional
T6 sequence (Q9Y2T6 whole entry): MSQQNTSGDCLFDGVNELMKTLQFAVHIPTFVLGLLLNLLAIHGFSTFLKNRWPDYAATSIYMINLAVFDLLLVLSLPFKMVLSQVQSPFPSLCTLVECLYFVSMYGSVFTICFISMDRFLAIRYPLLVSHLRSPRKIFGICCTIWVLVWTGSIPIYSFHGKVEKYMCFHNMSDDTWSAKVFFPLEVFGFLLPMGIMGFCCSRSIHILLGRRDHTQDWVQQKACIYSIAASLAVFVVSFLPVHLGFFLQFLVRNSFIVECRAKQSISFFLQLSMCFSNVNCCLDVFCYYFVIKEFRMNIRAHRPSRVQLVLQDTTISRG

[20] = target: T7, G-protein coupled receptor 35 (Homo sapiens, UniProt Q9HC97); assay: SAR analysis of Agonists of the GPR35 Receptor using an Image-Based Assay - Set 2. [Related pubchem assays (depositor defined):AID2013, AID2026]; format: functional
T7 sequence (Q9HC97 whole entry): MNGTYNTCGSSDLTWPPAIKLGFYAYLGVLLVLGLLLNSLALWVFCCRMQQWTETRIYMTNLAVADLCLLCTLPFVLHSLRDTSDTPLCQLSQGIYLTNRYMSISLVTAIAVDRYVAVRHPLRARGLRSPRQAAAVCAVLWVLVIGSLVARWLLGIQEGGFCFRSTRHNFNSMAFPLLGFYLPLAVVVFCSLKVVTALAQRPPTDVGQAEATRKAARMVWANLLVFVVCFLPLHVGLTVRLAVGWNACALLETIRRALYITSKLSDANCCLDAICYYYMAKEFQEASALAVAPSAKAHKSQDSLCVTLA

[21] = target: T7, G-protein coupled receptor 35; assay: SAR analysis of Antagonists of the GPR35 Receptor using an Image-Based Assay - Set 3. [Related pubchem assays (depositor defined):AID2013, AID2026]; format: functional
[22] = target: T6, G-protein coupled receptor 55; assay: GPR55 antagonists blocking LPI-driven arrestin recruitment, primary screen, imaging, U2OS, beta-arrestin-GFP, LPI agonist (AID 2013); format: functional;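 further: antagonist potency measured as reduced agonist-driven arrestin aggregation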
Cannabinoid receptor 1 [23] = target: T8, Cannabinoid receptor 1 (Homo sapiens, UniProt P21554); assay: SAR analysis of agonists of the Cannabinoid Receptor 1 using an Image-Based Assay - Set 2. [Related pubchem assays (depositor defined):AID2013, AID2026]; format: functional
T8 sequence (P21554 whole entry): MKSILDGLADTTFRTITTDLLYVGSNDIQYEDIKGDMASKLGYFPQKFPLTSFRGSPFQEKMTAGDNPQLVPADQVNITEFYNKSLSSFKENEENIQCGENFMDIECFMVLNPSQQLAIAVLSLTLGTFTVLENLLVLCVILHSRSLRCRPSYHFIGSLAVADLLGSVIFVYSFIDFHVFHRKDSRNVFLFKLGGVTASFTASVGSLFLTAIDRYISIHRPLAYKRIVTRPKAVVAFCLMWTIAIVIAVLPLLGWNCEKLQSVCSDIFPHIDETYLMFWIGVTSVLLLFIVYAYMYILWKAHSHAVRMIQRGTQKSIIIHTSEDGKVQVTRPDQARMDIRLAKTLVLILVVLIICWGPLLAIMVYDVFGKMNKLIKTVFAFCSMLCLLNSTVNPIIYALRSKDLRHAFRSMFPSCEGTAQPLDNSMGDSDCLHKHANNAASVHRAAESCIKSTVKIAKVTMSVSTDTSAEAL

Cannabinoid receptor 2 [24] = target: T5, Cannabinoid receptor 2; assay: SAR analysis of antagonists of the Cannabinoid Receptor 2 using an Image-Based Assay. [Related pubchem assays (depositor defined):AID2013, AID2026]; format: functional
Cannabinoid receptor 1 [25] = target: T8, Cannabinoid receptor 1; assay: SAR analysis of antagonists of the Cannabinoid Receptor 1 using an Image-Based Assay - Set 2. [Related pubchem assays (depositor defined):AID2013, AID2026]; format: functional
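Wherever AC50 is given: cells exposed to compound for roughly 70 hours or longer before luminescence read.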

CN(C(=O)COC(=O)/C=C/c1cccc([N+](=O)[O-])c1)C1CCS(=O)(=O)C1 (configuration not stated)
IC50 [1]: 32.3 µM (not active)
IC50 (DLD-1 [2]): 2.25 µM (active)
CC50 [3]: 11.4 µM (active)
AC50 [4]: 1.43 µM (active)
IC50 (DLD-1 [5]): 3.57 µM (active)

Cc1ccc(OCCOc2ccc(Cl)cc2Cl)c([N+](=O)[O-])n1
EC50 [6]: > 50 µM (inactive)
EC50 [7]: 0.529 µM (active)
EC50 [8]: > 49.8 µM (inactive)
EC50 [9]: > 50 µM (inactive)
EC50 [10]: > 50 µM (inactive)
EC50 [11]: > 50 µM (inactive)

COc1ccccc1-n1cnc2c(c1=O)c1nc3ccccc3nc1n2-c1ccc(C)c(C)c1
EC50 (Streptococcus): 59 µM (active)
EC50 [12]: 11.2 µM (active)
IC50 [13]: 7.53 µM (active)
EC50 (Streptokinase A): > 150 µM (not active)
EC50 [14]: 20.2 µM (active)
IC50 (SUMO-activating enzyme [15]): 5.24 µM (active)
IC50 (SUMO-activating enzyme [16]): 15.4 µM (active)
EC50 [17]: 19.2 µM (active)

Cc1cccn2c(=O)c3cc(C(=O)NC4CCCC4)c(=N)n(C4CCCC4)c3nc12
EC50 (Cannabinoid receptor 2 [18]): > 32 µM (inactive)
IC50 [19]: 0.965 µM (active)
EC50 [20]: > 32 µM (inactive)
IC50 [21]: > 32 µM (inactive)
IC50 [22]: 1.24 µM (active)
EC50 (Cannabinoid receptor 1 [23]): > 32 µM (inactive)
IC50 (Cannabinoid receptor 2 [24]): > 32 µM (inactive)
IC50 (Cannabinoid receptor 1 [25]): > 32 µM (inactive)
